Test results: patent publication US9278981B2, “Compounds and compositions for inhibiting the activity of ABL1, ABL2 and BCR-ABL1” (Novartis AG, priority 2012, dated 2016)

Legend:
ABL1 (64-515) [1] = target: T1, ABL1 (64-515) (Homo sapiens (Human), UniProt P00519); assay: Radio ABL1 (64-515) assay (radiometric filter-binding); type: biochemical
ABL1 (64-515) [2] = target: T1, ABL1 (64-515); assay: Caliper ABL1 (64-515) assay (microfluidic mobility shift); type: biochemical
Procedure: Expression and purification of human ABL was performed using standard expression purification procedures. […] The His-ABL was expressed in E. coli BL21 (DE3) and the ABL proteins were isolated by Ni-affinity on a Ni-NTA column (Qiagen). The His-tag was removed by PreScission protease (GE Healthcare) and the non-phosphoprylated ABL further purified on a Mono Q HR 10/10 (GE Healthcare, mono-phosphorylated ABL is about 10-20% of total ABL protein) and HiLoad 16/60 Superdex 200 size exclusion column (GE Healthcare).
All assays were performed in 384-well microtiter plates. Each assay plate contained 8-point serial dilutions for 40 test compounds, as well as four 8-point serial dilutions of staurosporine as a reference compound, plus 16 high and 16 low controls. Liquid handling and incubation steps were done on a Thermo CatX workstation equipped with Innovadyne Nanodrop Express. Between pipetting steps, tips were cleaned in wash cycles using wash buffer.
The assay plates were prepared by addition of 50 nL per well of compound solution in 90% DMSO. […] Plates with terminated kinase reactions were transferred to the Caliper LC3000 workstations for reading. Phosphorylated and unphosphorylated peptides were separated using the Caliper microfluidic mobility shift technology. Briefly, samples from terminated kinase reactions were applied to the chip. Analytes are transported through the chip by constant buffer flow and the migration of the substrate peptide is monitored by the fluorescence signal of its label. Phosphorylated peptide (product) and unphosphorylated peptide (substrate) are separated in an electric field by their charge/mass ratio. Kinase activities were calculated from the amounts of formed phospho-peptide. IC50 values were determined from percent inhibition values at different compound concentrations by non-linear regression analysis.
Test compounds were dissolved in DMSO (10 mM) and transferred into 1.4 mL flat bottom or V-shaped Matrix tubes carrying a unique 2D matrix. The stock solutions were stored at +2° C. if not used immediately. For the test procedure the vials were defrosted and identified by a scanner whereby a working sheet was generated that guided the subsequent working steps.
Compound dilutions were made in 96-well plates. This format enabled the assay of maximally 40 individual test compounds at 8 concentrations (single points) including 4 reference compounds. The dilution protocol included the production of “pre-dilution plates”, “master plates” and “assay plates”.
Polypropylene 96-well plates were used as pre-dilution plates. […] All dilution steps were done on a HamiltonSTAR robot.
These plates were used directly for the assay which was performed in a total volume of 9.05 μL.

T1 sequence (P00519 64-515): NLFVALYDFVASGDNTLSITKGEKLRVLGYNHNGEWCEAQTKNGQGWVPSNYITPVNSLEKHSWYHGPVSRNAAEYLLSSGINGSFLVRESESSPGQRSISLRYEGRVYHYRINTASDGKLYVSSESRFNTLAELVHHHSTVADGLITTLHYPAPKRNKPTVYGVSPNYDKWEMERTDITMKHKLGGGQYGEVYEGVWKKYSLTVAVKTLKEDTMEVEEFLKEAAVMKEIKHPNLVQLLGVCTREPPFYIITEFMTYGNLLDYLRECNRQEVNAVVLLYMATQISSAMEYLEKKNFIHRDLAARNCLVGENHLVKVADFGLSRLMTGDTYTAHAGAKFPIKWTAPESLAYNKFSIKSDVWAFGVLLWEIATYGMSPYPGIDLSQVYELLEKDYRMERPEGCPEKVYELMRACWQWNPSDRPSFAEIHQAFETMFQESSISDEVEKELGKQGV

Question: How did the IC50 (ABL1 (64-515) [1]) turn out when `CC(F)(F)Oc1ccc(NC(=O)c2cnc(N3CC[C@@H](O)C3)c(-c3cncc(C#N)c3)c2)cc1` [Example 276] was run?
Answer: The IC50 was 3 nM.

Question: What about the IC50 (ABL1 (64-515) [2]) of the same molecule?
Answer: The IC50 was 6.8 nM.

Question: How did the IC50 (ABL1 (64-515) [1]) turn out when `N#Cc1ccncc1-c1cc(C(=O)Nc2ccc(OC(F)(F)Cl)cc2)cnc1N1CC[C@@H](O)C1` [Example 274] was run?
Answer: Its IC50 is under 0.1 nM.

Question: And the IC50 (ABL1 (64-515) [2])?
Answer: Its IC50 is 0.4 nM.

Question: For `CCN(CCO)c1ncc(C(=O)Nc2ccc(OC(F)(F)Cl)cc2)cc1-c1cncc(C#N)c1` [Example 184, N-(4-(Chlorodifluoromethoxy)phenyl)-5′-cyano-2-(ethyl(2-hydroxyethyl)amino)-[3,3′-bipyridine]-5-carboxamide], which IC50 (ABL1 (64-515) [1]) is on record?
Answer: Its IC50 is 6 nM.

Question: What about the IC50 (ABL1 (64-515) [2]) of the same molecule?
Answer: Its IC50 is 0.8 nM.

Question: `O=C(Nc1ccc(OC(F)(F)Cl)cc1)c1cnc(N2CCNC3(CC3)C2)c(-c2cncnc2)c1` [Example 256] was tested. Which IC50 (ABL1 (64-515) [1]) did it give?
Answer: Its IC50 is 2 nM.

Question: What about the IC50 (ABL1 (64-515) [2]) of the same molecule?
Answer: The IC50 was 0.4 nM.

Question: Which IC50 (ABL1 (64-515) [1]) does the source give for `N#Cc1ccncc1-c1cc(C(=O)Nc2ccc(OC(F)(F)Cl)cc2)cnc1N1C[C@H](O)[C@@H](O)C1` [Example 290, N-(4-(Chlorodifluoromethoxy)phenyl)-4′-cyano-2-((3S,4S)-3,4-dihydroxypyrrolidin-1-yl)-[3,3′-bipyridine]-5-carboxamide] here?
Answer: The IC50 was 2 nM.

Question: And the IC50 (ABL1 (64-515) [2])?
Answer: The IC50 was 0.8 nM.

Question: For `CN(C)C1CN(c2ncc(C(=O)Nc3ccc(OC(F)(F)F)cc3)cc2-c2cncnc2)C1` [Example 232], which IC50 (ABL1 (64-515) [1]) is on record?
Answer: The IC50 was 6 nM.

Question: And the IC50 (ABL1 (64-515) [2])?
Answer: The IC50 was 5.3 nM.

Question: With `Nc1ncc(-c2cc(C(=O)Nc3ccc(OC(F)(F)F)cc3)cnc2N2CC[C@@H](O)C2)cn1` [Example 38, (R)-5-(2-Aminopyrimidin-5-yl)-6-(3-hydroxypyrrolidin-1-yl)-N-(4-(trifluoromethoxy)phenyl)nicotinamide] as the molecule, how does the IC50 (ABL1 (64-515) [1]) read?
Answer: Its IC50 is 4 nM.

Question: What about the IC50 (ABL1 (64-515) [2]) of the same molecule?
Answer: Its IC50 is 1.4 nM.

Question: `CN(CCO)c1ncc(C(=O)Nc2ccc(OC(F)(F)F)cc2)cc1-c1cncc(F)c1` [Example 154, 5′-Fluoro-2-((2-hydroxyethyl)(methyl)amino)-N-(4-(trifluoromethoxy)phenyl)-[3,3′-bipyridine]-5-carboxamide] was tested. Which IC50 (ABL1 (64-515) [1]) did it give?
Answer: The IC50 was under 3 nM.

Question: And the IC50 (ABL1 (64-515) [2])?
Answer: Its IC50 is 1 nM.

Question: Which results are given for `N#Cc1ccncc1-c1cc(C(=O)Nc2ccc(OC(F)(F)F)cc2)cnc1N1CC[C@@H](O)C1` [Example 240, (R)-4′-Cyano-2-(3-hydroxypyrrolidin-1-yl)-N-(4-(trifluoromethoxy)phenyl)-[3,3′-bipyridine]-5-carboxamide]?
Answer: IC50 (ABL1 (64-515) [1]): 2 nM; IC50 (ABL1 (64-515) [2]): 1.4 nM

Question: Which IC50 (ABL1 (64-515) [1]) does the source give for `O=C(Nc1ccc(OC(F)(F)F)cc1)c1cnc(N2CC[C@H](CO)C2)c(-c2ccc(CF)nc2)c1` [Example 84, (S)-6′-(Fluoromethyl)-2-(3-(hydroxymethyl)pyrrolidin-1-yl)-N-(4-(trifluoromethoxy)phenyl)-[3,3′-bipyridine]-5-carboxamide] here?
Answer: Its IC50 is 3 nM.

Question: What about the IC50 (ABL1 (64-515) [2]) of the same molecule?
Answer: Its IC50 is 1.1 nM.

Question: How did the IC50 (ABL1 (64-515) [1]) turn out when `O=C(Nc1ccc(OC(F)(F)Cl)cc1)c1cnc(N2CCC(F)(F)C2)c(-c2cncnc2)c1` [Example 247, N-(4-(Chlorodifluoromethoxy)phenyl)-6-(3,3-difluoropyrrolidin-1-yl)-5-(pyrimidin-5-yl)nicotinamide] was run?
Answer: The IC50 was 1.9 nM.

Question: And the IC50 (ABL1 (64-515) [2])?
Answer: The IC50 was under 0.13 nM.

Question: Which IC50 (ABL1 (64-515) [1]) does the source give for `N#Cc1cncc(-c2cc(C(=O)Nc3ccc(OC(F)(F)F)cc3)cnc2N2CC[C@H](CO)C2)c1` [Example 90, (S)-5′-Cyano-2-(3-(hydroxymethyl)pyrrolidin-1-yl)-N-(4-(trifluoromethoxy)phenyl)-[3,3′-bipyridine]-5-carboxamide] here?
Answer: The IC50 was under 3 nM.

Question: What about the IC50 (ABL1 (64-515) [2]) of the same molecule?
Answer: The IC50 was 0.7 nM.

Question: For `CN(CCO)c1ncc(C(=O)Nc2ccc(SC(F)(F)F)cc2)cc1-c1cncnc1` [Example 192, 6-((2-Hydroxyethyl)(methyl)amino)-5-(pyrimidin-5-yl)-N-(4-((trifluoromethyl)thio)phenyl)nicotinamide], which IC50 (ABL1 (64-515) [1]) is on record?
Answer: Its IC50 is 2 nM.

Question: And the IC50 (ABL1 (64-515) [2])?
Answer: Its IC50 is 1.3 nM.

Question: `O=C(Nc1ccc(OC(F)(F)F)cc1)c1cnc(N2CC[C@@H](O)C2)c(-c2cncc(Cl)c2)c1` [Example 50, (R)-5′-Chloro-2-(3-hydroxypyrrolidin-1-yl)-N-(4-(trifluoromethoxy)phenyl)-[3,3′-bipyridine]-5-carboxamide] was tested. Which IC50 (ABL1 (64-515) [1]) did it give?
Answer: The IC50 was 3 nM.

Question: What about the IC50 (ABL1 (64-515) [2]) of the same molecule?
Answer: Its IC50 is 1.1 nM.

Question: `N#Cc1cncc(-c2cc(C(=O)Nc3ccc(C(F)(F)C(F)(F)F)cc3)cnc2N2CC[C@@H](O)C2)c1` [Example 210, (R)-5′-Cyano-2-(3-hydroxypyrrolidin-1-yl)-N-(4-(perfluoroethyl)phenyl)-[3,3′-bipyridine]-5-carboxamide] was tested. Which IC50 (ABL1 (64-515) [1]) did it give?
Answer: The IC50 was 4 nM.

Question: What about the IC50 (ABL1 (64-515) [2]) of the same molecule?
Answer: Its IC50 is 0.8 nM.

Question: Which results are given for `O=C(Nc1ccc(OC(F)(F)F)cc1)c1cnc(N2C3COCC2COC3)c(-c2cncnc2)c1` [Example 150, 6-(3,7-Dioxa-9-azabicyclo[3.3.1]nonan-9-yl)-5-(pyrimidin-5-yl)-N-(4-(trifluoromethoxy)phenyl)nicotinamide]?
Answer: IC50 (ABL1 (64-515) [1]): 4 nM; IC50 (ABL1 (64-515) [2]): 6.5 nM

Question: Which results are given for `N[C@@H]1CCCN(c2ncc(C(=O)Nc3ccc(OC(F)(F)Cl)cc3)cc2-c2cncnc2)C1` [Example 255]?
Answer: IC50 (ABL1 (64-515) [1]): 2.1 nM; IC50 (ABL1 (64-515) [2]): 1.1 nM

Question: `CO[C@H]1CN(c2ncc(C(=O)Nc3ccc(OC(F)(F)F)cc3)cc2-c2cncc(F)c2)C[C@@H]1N` (relative stereo) [Example 286, 2-(trans-3-Amino-4-methoxypyrrolidin-1-yl)-5′-fluoro-N-(4-(trifluoromethoxy)phenyl)-[3,3′-bipyridine]-5-carboxamide] was tested. Which IC50 (ABL1 (64-515) [1]) did it give?
Answer: The IC50 was 2 nM.

Question: What about the IC50 (ABL1 (64-515) [2]) of the same molecule?
Answer: The IC50 was 1.7 nM.

Question: Which IC50 (ABL1 (64-515) [1]) does the source give for `O=C(Nc1ccc(S(F)(F)(F)(F)F)cc1)c1cnc(N2CC[C@@H](O)C2)c(-c2cncc(F)c2)c1` [Example 277] here?
Answer: The IC50 was 2 nM.

Question: And the IC50 (ABL1 (64-515) [2])?
Answer: The IC50 was 1.7 nM.

Question: What does the source list for `O=C(Nc1ccc(OC(F)(F)F)cc1)c1cnc(N2CC[C@@H](O)C2)c(-c2ccc(CO)nc2)c1` [Example 42, (R)-6′-(Hydroxymethyl)-2-(3-hydroxypyrrolidin-1-yl)-N-(4-(trifluoromethoxy)phenyl)-[3,3′-bipyridine]-5-carboxamide]?
Answer: IC50 (ABL1 (64-515) [1]): < 3 nM; IC50 (ABL1 (64-515) [2]): 0.8 nM

Question: Which IC50 (ABL1 (64-515) [1]) does the source give for `CN(CCO)c1ncc(C(=O)Nc2ccc(OC(F)(F)F)cc2)cc1-c1cncc(C#N)c1` [Example 155, 5′-Cyano-2-((2-hydroxyethyl)(methyl)amino)-N-(4-(trifluoromethoxy)phenyl)-[3,3′-bipyridine]-5-carboxamide] here?
Answer: The IC50 was 11 nM.

Question: And the IC50 (ABL1 (64-515) [2])?
Answer: The IC50 was 5 nM.

Question: Which results are given for `CC1(O)CN(c2ncc(C(=O)Nc3ccc(OC(F)(F)F)cc3)cc2-c2cccnc2)C1` [Example 130, 2-(3-Hydroxy-3-methylazetidin-1-yl)-N-(4-(trifluoromethoxy)phenyl)-[3,3′-bipyridine]-5-carboxamide]?
Answer: IC50 (ABL1 (64-515) [1]): 3 nM; IC50 (ABL1 (64-515) [2]): 1.2 nM

Question: What does the source list for `O=C(Nc1ccc(OC(F)(F)F)cc1)c1ccc(N2C[C@@H](O)[C@@H](O)C2)c(-c2cncnc2)c1` [Example 10, 4-(cis-3,4-Dihydroxypyrrolidin-1-yl)-3-(pyrimidin-5-yl)-N-(4-(trifluoromethoxy)phenyl)benzamide]?
Answer: IC50 (ABL1 (64-515) [1]): 3 nM; IC50 (ABL1 (64-515) [2]): 2.2 nM

Question: How did the IC50 (ABL1 (64-515) [1]) turn out when `CN(C)[C@H]1CN(c2ncc(C(=O)Nc3ccc(OC(F)(F)F)cc3)cc2-c2cncc(F)c2)C[C@@H]1O` [Example 236, 2-((3S,4S)-3-(Dimethylamino)-4-hydroxypyrrolidin-1-yl)-5′-fluoro-N-(4-(trifluoromethoxy)phenyl)-[3,3′-bipyridine]-5-carboxamide] was run?
Answer: Its IC50 is 3 nM.

Question: And the IC50 (ABL1 (64-515) [2])?
Answer: Its IC50 is 1.4 nM.

Question: Which results are given for `O=C(Nc1ccc(OC(F)(F)Cl)cc1)c1cnc(N2CC[C@@H](O)C2)c(-c2cccnc2F)c1` [Example 172, (R)—N-(4-(Chlorodifluoromethoxy)phenyl)-2′-fluoro-2-(3-hydroxypyrrolidin-1-yl)-[3,3′-bipyridine]-5-carboxamide]?
Answer: IC50 (ABL1 (64-515) [1]): < 3 nM; IC50 (ABL1 (64-515) [2]): 0.3 nM
